Reference: patent US12162840B2, “Herbicidal compositions” (SYNGENTA PARTICIPATIONS AG, priority 2018, dated 2024)

What was measured:
Assay type in all cases: in vivo
[1] = test system: Echinochloa crus-galli (ECHCG); test: B1 Post-emergence efficacy Test 1; conditions: post-emergence application, 1000 g/ha, evaluated after 13 days
Description: (§1) Seeds of a variety of test species are sown in standard soil in pots:—Solanum nigrum (SOLNI), Amaranthus retoflexus (AMARE), Setaria faberi (SETFA), Alopecurus myosuroides (ALOMY), Echinochloa crus-galli (ECHCG), Ipomoea hederacea (IPOHE), Lolium perenne (LOLPE). After 8 days cultivation (post-emergence) under controlled conditions in a glasshouse (at 24/16° C., day/night; 14 hours light; 65% humidity), the plants are sprayed with an aqueous spray solution derived from the formulation of the technical active ingredient in acetone/water (50:50) solution containing 0.5% Tween 20 (polyoxyethylene sorbitan monolaurate, CAS RN 9005-64-5). Compounds are applied at 1000 g/ha. The test plants are then grown in a glasshouse under controlled conditions in a glasshouse (at 24/16° C., day/night; 14 hours light; 65% humidity) and watered twice daily. After 13 days, the test is evaluated for the percentage damage caused to the plant. The biological activities are assessed on a five point scale (5=80-100%; 4=60-79%; 3=40-59%; 2=20-39%; 1=0-19%). A blank value in the table is indicative that the compound was not tested on that species.

Setaria faberi (SETFA) = test: B1 Post-emergence efficacy Test 1; conditions: post-emergence application, 1000 g/ha, evaluated after 13 days
Description: as §1

Lolium perenne (LOLPE) = test: B1 Post-emergence efficacy Test 1; conditions: post-emergence application, 1000 g/ha, evaluated after 13 days
Description: as §1

[2] = test system: Amaranthus retoflexus (AMARE); test: B1 Post-emergence efficacy Test 1; conditions: post-emergence application, 1000 g/ha, evaluated after 13 days
Description: as §1

Solanum nigrum (SOLNI) = test: B1 Post-emergence efficacy Test 1; conditions: post-emergence application, 1000 g/ha, evaluated after 13 days
Description: as §1

[3] = test system: Ipomoea hederacea (IPOHE); test: B1 Post-emergence efficacy Test 1; conditions: post-emergence application, 1000 g/ha, evaluated after 13 days
Description: as §1

[4] = test system: warm season plant species; test: B2 Post-emergence efficacy Test 2, warm season plant species; conditions: 15 days after application, 0-100 scale, 0=no damage, 100=total kill; for Herbicidal activity, ABUTH: Abutilon theophrasti; for Herbicidal activity, AMARE: Amaranthus retroflexus; for Herbicidal activity, BIDPI: Bidens pilosa; for Herbicidal activity, BRAPL: Brachiaria plantaginea; for Herbicidal activity, DIGSA: Digitaria sanguinalis; for Herbicidal activity, ECHCG: Echinochloa crus galli; for Herbicidal activity, ELEIN: Eleisine indica; for Herbicidal activity, EPHHL: Euphorbia hetrophylla; for Herbicidal activity, GLXMA: Glycine max; for Herbicidal activity, IPOHE: Ipomoea hederacea; for Herbicidal activity, ORYSA: Orysa sativa; for Herbicidal activity, PANMI: Panicum miliaceum; for Herbicidal activity, SETFA: Setaria faberi; for Herbicidal activity, SIDSP: Sida spinosa; for Herbicidal activity, SORVU: Sorghum bicolour; for Herbicidal activity, XANST: Xanthium strumarium; for Herbicidal activity, ZEAMX: Zea mays
Description: Seeds of a variety of test species (see Table B1) were sown in standard soil in pots. After cultivation for 12 days (post-emergence) under controlled conditions in a glasshouse (at 24/18° C. or 20/16° C., at day/night; 16 hours light; 65% humidity), the plants were sprayed with an aqueous spray solution derived from the formulation of the technical active ingredient dissolved in IF50 (see Table B2 for composition) and adjuvant (Genapol XO80) was added to the spray solution at a rate of 0.2% v/v. [table] [table] After application, the test plants were grown in a glasshouse under controlled conditions (as above) and watered twice daily. Herbicidal activity was evaluated 15 days after application on a 0-100 scale. The results, where 0=no damage to test plant and 100=total kill of test plant are shown below in Tables 6 to 9.

Cc1nn(C)c(=O)c(-c2c(F)ccc(Cl)c2CCc2ccc(F)cc2)c1O [Compound 1.048]
percentage damage caused to the plant, five point scale, ECHCG [1]: 5 (5=80-100%) | percentage damage caused to the plant, five point scale, SETFA (Setaria faberi (SETFA)): 5 (5=80-100%) | percentage damage caused to the plant, five point scale, LOLPE (Lolium perenne (LOLPE)): 5 (5=80-100%) | percentage damage caused to the plant, five point scale, AMARE [2]: 5 (5=80-100%) | percentage damage caused to the plant, five point scale, SOLNI (Solanum nigrum (SOLNI)): 5 (5=80-100%) | percentage damage caused to the plant, five point scale, IPOHE [3]: 5 (5=80-100%) | Herbicidal activity, ABUTH ([4]; 15 g/Ha): 60 | Herbicidal activity, ABUTH ([4]; 30 g/Ha): 80 | Herbicidal activity, ABUTH ([4]; 60 g/Ha): 90 | Herbicidal activity, ABUTH ([4]; 125 g/Ha): 90 | Herbicidal activity, ABUTH ([4]; 250 g/Ha): 90 | Herbicidal activity, ABUTH ([4]; 500 g/Ha): 100 | Herbicidal activity, AMARE ([4]; 15 g/Ha): 60 | Herbicidal activity, AMARE ([4]; 30 g/Ha): 80 | Herbicidal activity, AMARE ([4]; 60 g/Ha): 90 | Herbicidal activity, AMARE ([4]; 125 g/Ha): 90 | Herbicidal activity, AMARE ([4]; 250 g/Ha): 100 | Herbicidal activity, AMARE ([4]; 500 g/Ha): 100 | Herbicidal activity, BIDPI ([4]; 15 g/Ha): 70 | Herbicidal activity, BIDPI ([4]; 30 g/Ha): 70 | Herbicidal activity, BIDPI ([4]; 60 g/Ha): 70 | Herbicidal activity, BIDPI ([4]; 125 g/Ha): 70 | Herbicidal activity, BIDPI ([4]; 250 g/Ha): 100 | Herbicidal activity, BIDPI ([4]; 500 g/Ha): 100 | Herbicidal activity, BRAPL ([4]; 15 g/Ha): 20 | Herbicidal activity, BRAPL ([4]; 30 g/Ha): 60 | Herbicidal activity, BRAPL ([4]; 60 g/Ha): 80 | Herbicidal activity, BRAPL ([4]; 125 g/Ha): 80 | Herbicidal activity, BRAPL ([4]; 250 g/Ha): 90 | Herbicidal activity, BRAPL ([4]; 500 g/Ha): 100 | Herbicidal activity, DIGSA ([4]; 15 g/Ha): 0 | Herbicidal activity, DIGSA ([4]; 30 g/Ha): 10 | Herbicidal activity, DIGSA ([4]; 60 g/Ha): 20 | Herbicidal activity, DIGSA ([4]; 125 g/Ha): 20 | Herbicidal activity, DIGSA ([4]; 250 g/Ha): 50 | Herbicidal activity, DIGSA ([4]; 500 g/Ha): 70 | Herbicidal activity, ECHCG ([4]; 15 g/Ha): 60 | Herbicidal activity, ECHCG ([4]; 30 g/Ha): 80 | Herbicidal activity, ECHCG ([4]; 60 g/Ha): 80 | Herbicidal activity, ECHCG ([4]; 125 g/Ha): 90 | Herbicidal activity, ECHCG ([4]; 250 g/Ha): 90 | Herbicidal activity, ECHCG ([4]; 500 g/Ha): 100 | Herbicidal activity, ELEIN ([4]; 15 g/Ha): 0 | Herbicidal activity, ELEIN ([4]; 30 g/Ha): 50 | Herbicidal activity, ELEIN ([4]; 60 g/Ha): 60 | Herbicidal activity, ELEIN ([4]; 125 g/Ha): 60 | Herbicidal activity, ELEIN ([4]; 250 g/Ha): 80 | Herbicidal activity, ELEIN ([4]; 500 g/Ha): 80 | Herbicidal activity, EPHHL ([4]; 15 g/Ha): 50 | Herbicidal activity, EPHHL ([4]; 30 g/Ha): 70 | Herbicidal activity, EPHHL ([4]; 60 g/Ha): 90 | Herbicidal activity, EPHHL ([4]; 125 g/Ha): 90 | Herbicidal activity, EPHHL ([4]; 250 g/Ha): 100 | Herbicidal activity, EPHHL ([4]; 500 g/Ha): 100 | Herbicidal activity, GLXMA ([4]; 15 g/Ha): 70 | Herbicidal activity, GLXMA ([4]; 30 g/Ha): 80 | Herbicidal activity, GLXMA ([4]; 60 g/Ha): 90 | Herbicidal activity, GLXMA ([4]; 125 g/Ha): 90 | Herbicidal activity, GLXMA ([4]; 250 g/Ha): 90 | Herbicidal activity, GLXMA ([4]; 500 g/Ha): 100 | Herbicidal activity, IPOHE ([4]; 15 g/Ha): 70 | Herbicidal activity, IPOHE ([4]; 30 g/Ha): 80 | Herbicidal activity, IPOHE ([4]; 60 g/Ha): 100 | Herbicidal activity, IPOHE ([4]; 125 g/Ha): 100 | Herbicidal activity, IPOHE ([4]; 250 g/Ha): 100 | Herbicidal activity, IPOHE ([4]; 500 g/Ha): 100 | Herbicidal activity, ORYSA ([4]; 15 g/Ha): 0 | Herbicidal activity, ORYSA ([4]; 30 g/Ha): 0 | Herbicidal activity, ORYSA ([4]; 60 g/Ha): 0 | Herbicidal activity, ORYSA ([4]; 125 g/Ha): 0 | Herbicidal activity, ORYSA ([4]; 250 g/Ha): 10 | Herbicidal activity, ORYSA ([4]; 500 g/Ha): 30 | Herbicidal activity, PANMI ([4]; 15 g/Ha): 0 | Herbicidal activity, PANMI ([4]; 30 g/Ha): 20 | Herbicidal activity, PANMI ([4]; 60 g/Ha): 30 | Herbicidal activity, PANMI ([4]; 125 g/Ha): 80 | Herbicidal activity, PANMI ([4]; 250 g/Ha): 100 | Herbicidal activity, PANMI ([4]; 500 g/Ha): 100 | Herbicidal activity, SETFA ([4]; 15 g/Ha): 0 | Herbicidal activity, SETFA ([4]; 30 g/Ha): 40 | Herbicidal activity, SETFA ([4]; 60 g/Ha): 40 | Herbicidal activity, SETFA ([4]; 125 g/Ha): 70 | Herbicidal activity, SETFA ([4]; 250 g/Ha): 80 | Herbicidal activity, SETFA ([4]; 500 g/Ha): 100 | Herbicidal activity, SIDSP ([4]; 15 g/Ha): 80 | Herbicidal activity, SIDSP ([4]; 30 g/Ha): 80 | Herbicidal activity, SIDSP ([4]; 60 g/Ha): 80 | Herbicidal activity, SIDSP ([4]; 125 g/Ha): 90 | Herbicidal activity, SIDSP ([4]; 250 g/Ha): 90 | Herbicidal activity, SIDSP ([4]; 500 g/Ha): 90 | Herbicidal activity, SORVU ([4]; 15 g/Ha): 0 | Herbicidal activity, SORVU ([4]; 30 g/Ha): 30 | Herbicidal activity, SORVU ([4]; 60 g/Ha): 70 | Herbicidal activity, SORVU ([4]; 125 g/Ha): 70 | Herbicidal activity, SORVU ([4]; 250 g/Ha): 80 | Herbicidal activity, SORVU ([4]; 500 g/Ha): 90 | Herbicidal activity, XANST ([4]; 60 g/Ha): 90 | Herbicidal activity, XANST ([4]; 125 g/Ha): 90 | Herbicidal activity, XANST ([4]; 250 g/Ha): 90 | Herbicidal activity, XANST ([4]; 500 g/Ha): 100 | Herbicidal activity, ZEAMX ([4]; 15 g/Ha): 0 | Herbicidal activity, ZEAMX ([4]; 30 g/Ha): 10 | Herbicidal activity, ZEAMX ([4]; 60 g/Ha): 50 | Herbicidal activity, ZEAMX ([4]; 125 g/Ha): 50 | Herbicidal activity, ZEAMX ([4]; 250 g/Ha): 70 | Herbicidal activity, ZEAMX ([4]; 500 g/Ha): 100
